Test results reported in PMC5681654, “Dual protein kinase and nucleoside kinase modulators for rationally designed polypharmacology” (Nature Communications, 2017).
“Also recorded” adds a separate entry of the source. Blank lines part the entries; values can stand above or below the molecule they belong to.

Tests used:
dCK-C3S-S74E = dCK-C3S-S74E (Homo sapiens, UniProt P27707, C45S/C59S/C9S/S74E); test: Isothermal titration calorimetry (ITC)
Description: ITC was used to evaluate the binding between dCK-C3S-S74E and the selected compounds. […] Purified dCK-C3S-S74E and the compounds were diluted in the ITC buffer containing 20 mM HEPES, pH 7.5, and 200 mM NaCl. Titrations were carried out on a MicroCal ITC200 microcalorimeter (GE Healthcare) at 25 °C using 16 or 24 injections of the titrant (1−3 mM compound in the syringe) into the analyte (100 or 300 μM protein in the cell). A first small injection (0.2 μl) was included in the titration protocol in order to remove air bubbles trapped in the syringe prior titration. Because of the low solubility of several ligands, sequential titrations were employed to achieve sufficient molar ratios for reliable model fitting, and these titrations were linked together prior to data analysis using ConCat32 software (Microcal). Raw data were scaled after setting the zero to the titration saturation heat value.

recombinant human dCK = recombinant human dCK (Homo sapiens, UniProt P27707); test: dCK kinetic assay (PK/LDH coupled, UTP as phosphate donor); settings: for effect on dCK enzymatic phosphorylation of gemcitabine: Supplementary Fig. 8; for effect on nucleoside phosphorylation by dCK: substrates 2′dC and gemcitabine, UTP, inhibitor/protein ratio 22
Description: Kinetic analyses were performed using a spectrophotometric continuous enzymatic-coupled assay using pyruvate kinase (PK) and lactate dehydrogenase (LDH). […] All measurements were performed on a BMG Labtech Pherastar FS apparatus. All assays were performed in triplicate and each experiment was performed at least twice. The data are presented as mean ± s.d. The results were plotted as kinetics and the velocity was determined for each condition as the slope of the linear range of the curve. […] K m (Michaelis−Menten constant) and V max (maximal velocity) values were determined using PRISM software (GraphPad Software Inc.) by fitting the experimental data according to the Michaelis−Menten approximation defined as Equation 1.1 V=Vmax⋅S∕Km+S

[1] = tested on: HRT18 (colon) cancer cell line; test: Cell proliferation assay (CellTiter-Blue), HRT18; assay type: cell-based, human
Description: (§1) At the end of incubation, 10 µl of CellTiter-Blue Reagent were added to each well. The absorbance was read at 590 nm. The effect of the drugs on cells was expressed as a percentage of proliferation compared to untreated cells. […] Drug synergy effects were analysed using Combenefit (Cancer Research Cambridge Institute), a software tool that enables the visualisation, analysis and quantification of drug combination effects[49]. The data from combination treatments were processed using three synergy reference models: highest single agent (HSA) model, Loewe additivity model and Bliss independence model for HRT18 and LnCAP cell lines.

[2] = tested on: A549 (lung) cancer cell line; test: Cell proliferation assay (CellTiter-Blue), A549; assay type: cell-based, human; settings: gemcitabine 0−100 µM or masitinib 0−10 µM alone, 5 days
Description: as §1

[3] = tested on: LNCaP (prostate) cancer cell line; test: Cell proliferation assay (CellTiter-Blue), LNCaP; assay type: cell-based, human
Description: as §1

[4] = tested on: CHO cells (constitutive dCK); test: Cell proliferation assay (CellTiter-Blue), CHO; assay type: cell-based, Chinese hamster; settings: gemcitabine 0−1 µM, 5 days
Description: as §1

[5] = tested on: CHO dCK- cells (deficient dCK); test: Cell proliferation assay (CellTiter-Blue), CHO dCK-; assay type: cell-based, Chinese hamster; settings: gemcitabine 0−1 µM, 5 days
Description: as §1

[6] = tested on: CHO dCK Rescue cells (partially reconstituted dCK); test: Cell proliferation assay (CellTiter-Blue), CHO dCK Rescue; assay type: cell-based, Chinese hamster; settings: CHO dCK Rescue (low dCK expression); gemcitabine 0−1 µM; 5 days
Description: At the end of incubation, 10 µl of CellTiter-Blue Reagent were added to each well. The absorbance was read at 590 nm. The effect of the drugs on cells was expressed as a percentage of proliferation compared to untreated cells.
CHO dCK deficient cells (CHO dCK-) were plated in 96-well plates at a density of 5000 cells per well and incubated overnight. The cells were transfected with the pMSCV insert free (vector control) and pMSCV-dCK respectively, using FuGENE 6 Transfection Reagent (Promega) according to manufacturer recommendations. Two days after transfection, cells were plated in 6-well plates and selected in 1 mg ml^-1 Geniticin-G418 (Gibco) for 2 weeks. The positive clones were picked and expanded to establish cell lines. The stable transfection cell clones, named as CHO dCK Rescue, were controlled by western blot analysis for dCK expression levels.

[7] = target: biotinylated dCK-C3S-S74E (Homo sapiens, UniProt P27707, C45S/C59S/C9S/S74E); test: Bio-layer interferometry kinetics, immobilised biotinylated dCK
Description: BLI measurements were carried out using an Octet RED96 instrument (ForteBio). Biotinylated dCK was immobilised on SSA biosensors at a concentration of 5 μM after 1200 s. Free streptavidin sites were blocked by incubating with 10 μg ml^−1 biocytin (Sigma-Aldrich) for 100 s and 1% BSA for 1000 s. A control set of SSA biosensors were prepared in parallel by blocking the surface with biocytin instead of protein. A three-point concentration series were prepared for each compound and were measured using 60 s association and 140 s dissociation steps at 30 °C with a shake speed of 1000 r.p.m. All measurements were performed in binding buffer containing 20 mM HEPES, pH 7.5, 200 mM NaCl, 0.1% BSA and 1% DMSO. Each experiment was performed at least twice and K D, k on and k off values were determined using the global fitting procedure in the ForteBio Data Analysis Software.

[8] = target: T1, uridine-cytidine kinase 1 (UCK1) (Homo sapiens, UniProt Q9HA47); test: UCK1 kinetic assay (PK/LDH coupled, ATP as phosphate donor); assay type: biochemical; settings: masitinib/protein ratios 0, 1, 10, 100
T1 construct: made in house; host or cells: E. coli BL21 DE3
T1 sequence (Q9HA47 1-277): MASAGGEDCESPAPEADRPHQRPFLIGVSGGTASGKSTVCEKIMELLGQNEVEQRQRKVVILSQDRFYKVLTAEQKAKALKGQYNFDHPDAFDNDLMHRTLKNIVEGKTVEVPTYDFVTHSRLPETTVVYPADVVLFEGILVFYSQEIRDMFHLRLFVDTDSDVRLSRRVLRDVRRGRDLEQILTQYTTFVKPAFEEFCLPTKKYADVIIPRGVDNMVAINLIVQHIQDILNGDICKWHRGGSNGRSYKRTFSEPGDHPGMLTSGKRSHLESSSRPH
Description: Kinetic analyses were performed using a spectrophotometric continuous enzymatic-coupled assay using pyruvate kinase (PK) and lactate dehydrogenase (LDH). […] . […] All assays were performed in triplicate and each experiment was performed at least twice. The data are presented as mean ± s.d. The results were plotted as kinetics and the velocity was determined for each condition as the slope of the linear range of the curve. […] . K m (Michaelis−Menten constant) and V max (maximal velocity) values were determined using PRISM software (GraphPad Software Inc.) by fitting the experimental data according to the Michaelis−Menten approximation defined as Equation 1.1 V=Vmax⋅S∕Km+S

thymidine kinase (TK1) = target: T2, thymidine kinase (TK1) (Homo sapiens, UniProt P04183); test: TK1 kinetic assay (HTRF Transcreener ADP assay); settings: masitinib/protein ratios 1, 5, 10, 20, 40
T2 sequence (P04183 2-234 limits assumed): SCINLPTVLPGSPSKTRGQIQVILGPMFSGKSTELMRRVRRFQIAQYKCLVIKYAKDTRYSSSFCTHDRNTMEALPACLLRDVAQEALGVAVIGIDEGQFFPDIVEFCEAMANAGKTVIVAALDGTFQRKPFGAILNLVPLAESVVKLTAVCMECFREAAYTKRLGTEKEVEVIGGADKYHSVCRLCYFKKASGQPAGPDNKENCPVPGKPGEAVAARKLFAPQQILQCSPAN
Description: ADP and ADP-d2 compete for the binding to a monoclonal anti-ADP antibody labelled with Europium (Eu^3+) cryptate. […] The obtained signal is inversely proportional to the concentration of ADP in the sample. All measurements were performed on a BMG Labtech Pherastar FS apparatus.

Sequence of recombinant human dCK (P27707 whole entry): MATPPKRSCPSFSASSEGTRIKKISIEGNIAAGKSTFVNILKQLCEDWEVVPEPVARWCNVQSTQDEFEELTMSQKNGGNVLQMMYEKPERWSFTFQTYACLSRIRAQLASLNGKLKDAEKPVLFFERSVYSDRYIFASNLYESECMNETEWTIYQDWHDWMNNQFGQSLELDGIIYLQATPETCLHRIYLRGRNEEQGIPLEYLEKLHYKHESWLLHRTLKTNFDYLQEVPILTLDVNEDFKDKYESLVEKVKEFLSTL
Sequence of dCK-C3S-S74E (P27707 whole entry C9S/C45S/C59S/S74E): as the sequence (P27707 whole entry) above, with C9S, C45S, C59S, S74E counted along it
Sequence of biotinylated dCK-C3S-S74E (P27707 whole entry C9S/C45S/C59S/S74E): as the sequence (P27707 whole entry) above, with C9S, C45S, C59S, S74E counted along it

Kd (dCK-C3S-S74E): 31 ± 5.4 µM
SMILES: Nc1ncn([C@H]2C[C@H](O)[C@@H](CO)O2)c(=O)n1 [Decitabine, decitabine]

Kd (dCK-C3S-S74E): 22.2 µM
BLI signal for substrate binding [7]: could not detect any signal
SMILES: Nc1ccn([C@@H]2O[C@H](CO)[C@@H](O)C2(F)F)c(=O)n1 [gemcitabine]
anti-proliferative effect, single agent ([1]; gemcitabine 0−100 µM or masitinib 0−10 µM alone, 5 days): could not induce strong anti-proliferative effects
anti-proliferative effect, single agent [2]: could not induce strong anti-proliferative effects
anti-proliferative effect, single agent ([3]; LNCaP, gemcitabine 0−100 µM or masitinib 0−10 µM alone, 5 days): could not induce strong anti-proliferative effects
sensitivity to gemcitabine [4]: strong sensitivity to gemcitabine
sensitivity to gemcitabine [5]: did not show any anti-proliferative effect
sensitivity to gemcitabine [6]: restored the capacity of CHO cells to respond to gemcitabine treatment

effect on nucleoside phosphorylation by dCK (recombinant human dCK): most active
SMILES: Cc1cc(Nc2cc(N3CCN(C)CC3)nc(Sc3ccc(NC(=O)C4CC4)cc3)n2)[nH]n1 [tozasertib]

Continued, molecule first:

SMILES: CNC(=O)c1ccccc1Sc1ccc2c(/C=C/c3ccccn3)n[nH]c2c1 [axitinib]
effect on dCK enzymatic phosphorylation of gemcitabine (recombinant human dCK): none of the compounds showed an activation effect

SMILES: Cc1ccc(NC(=O)c2ccc(CN3CC[C@H](N(C)C)C3)c(C(F)(F)F)c2)cc1Nc1nccc(-c2cncnc2)n1 [bafetinib]
effect on nucleoside phosphorylation by dCK (recombinant human dCK): most active

SMILES: COc1cc(Nc2c(C#N)cnc3cc(OCCCN4CCN(C)CC4)c(OC)cc23)c(Cl)cc1Cl [bosutinib]
effect on nucleoside phosphorylation by dCK (recombinant human dCK): most active

SMILES: C#Cc1cccc(Nc2ncnc3cc(OCCOC)c(OCCOC)cc23)c1 [erlotinib]
effect on dCK enzymatic phosphorylation of gemcitabine (recombinant human dCK): none of the compounds showed an activation effect

SMILES: Cc1ccc(NC(=O)c2ccc(CN3CCN(C)CC3)cc2)cc1Nc1nc(-c2cccnc2)cs1 [masitinib]
drug synergy with gemcitabine (Combenefit: HSA, Loewe, Bliss models) [1]: synergetic effect
drug synergy with gemcitabine (Combenefit: HSA, Loewe, Bliss models) ([3]; LnCAP): synergetic effect
modulation of UCK1 enzymatic activity [8]: didn’t produce an enzymatic modulation; also recorded: did not observe an enzymatic activation
modulation of TK1 enzymatic activity (thymidine kinase (TK1)): didn’t produce an enzymatic modulation; also recorded: did not observe an enzymatic activation

SMILES: CN[C@@H]1C[C@H]2O[C@@](C)([C@@H]1OC)n1c3ccccc3c3c4c(c5c6ccccc6n2c5c31)C(=O)NC4 [staurosporine]
effect on dCK enzymatic phosphorylation of gemcitabine (recombinant human dCK): none of the compounds showed an activation effect
